Laboratory results: ChEMBL document CHEMBL1157539, “Thousands of chemical starting points for antimalarial lead identification” (Nature, 2010)

Tested on: Plasmodium falciparum
Experiment: GSK_TCMDC: Inhibition of Plasmodium falciparum 3D7 in whole erythrocytes, using parasite LDH activity as an index of growth.
Format: functional, organism-based
Conditions: Plasmodium falciparum, 3D7

`CCCc1ccc(NC(=O)c2ccc(CN3CCCN(Cc4cccc(O)c4)CC3)cc2)cc1` showed an XC50 of 396 nM.
In the case of `O=C(Nc1ccnc2ccccc12)NC1CCN(CCc2ccccc2)CC1`, the XC50 is reported as 364 nM.
Compound `OCCN1CCN(Cc2ccc(-c3ccc(-c4nc5ccccc5[nH]4)cc3)cc2)CC1` has an XC50 of 616 nM.
`CC(C)c1ccc(OCCCON2C(=N)N=C(N)NC2(C)C)cc1` gave an XC50 of 3.2 nM.
`O=C(NCCN1CCCC1)c1cccc(-c2ccc(-c3nc4cc(C(F)(F)F)ccc4[nH]3)cc2)c1` gave an XC50 of 752 nM.
For `Nc1cccc(CNCc2ccc(-c3ccc(-c4nc5cc(C(F)(F)F)ccc5[nH]4)s3)cc2)c1`, the XC50 was 438 nM.
With `CC(C)(C)C(Cn1ccnc1)NCc1c[nH]nc1-c1ccc(-c2ccccc2)cc1` (stereo not drawn) the XC50 was 1060 nM.
For `Cc1nnc(-c2cccc(Nc3ccnc4cc(-c5nccs5)ccc34)c2)o1`, the XC50 was 632 nM.
`CC(C)CCNC(=O)c1cc(C(=O)c2cc(F)ccc2O)cn(CCC(C)C)c1=O` was tested, and the XC50 was 753 nM.
`OC(CNc1ccnc(Nc2ccccc2)n1)c1cccc(C(F)(F)F)c1` (stereo not drawn) gave an XC50 of 646 nM.
`O=C(Nc1ccc(F)c(Cl)c1)NC1CCN(c2ccnc3cc(Cl)ccc23)C1` (stereo not drawn) was tested, and the XC50 was 215 nM.
Work on `Clc1ccc(OCCC2CCN(CCCCCCCN3CCC(CCOc4ccc(Cl)c(Cl)c4)CC3)CC2)cc1Cl` yielded an XC50 of 624 nM.
With `COc1cccc(CNc2noc(-c3c(-c4ccccc4)noc3C)n2)c1OC` the XC50 was 875 nM.
In the case of `CC(CNCc1cn(Cc2cc(Br)cc(Br)c2)c2ccccc12)CNc1cc(=O)c2ccccc2[nH]1` (stereo not drawn), the XC50 is reported as 464 nM.
`Cc1noc(C)c1-c1cccc(CNCc2cccc(-c3cccc(-c4nc5ccccc5[nH]4)c3)c2)c1` showed an XC50 of 377 nM.
Work on `N=c1n(CCN2CCCCC2)c2ccccc2n1CC(=O)c1cccc([N+](=O)[O-])c1` yielded an XC50 of 879 nM.
In the case of `CN1CCC(C(=O)Nc2cccc(-c3ccc(-c4nc5cc(C(F)(F)F)ccc5[nH]4)s3)c2)CC1`, the XC50 is reported as 724 nM.
`CC(C)(C)C(=O)Oc1ccc(CC2NCCc3cc(OC(=O)C(C)(C)C)c(OC(=O)C(C)(C)C)cc32)cc1OC(=O)C(C)(C)C` (stereo not drawn) showed an XC50 of 419 nM.
For `CC(=O)C1=NN(c2ccc(Cl)cc2)C(c2cccs2)N1c1ccccc1` (stereo not drawn), the XC50 was 397 nM.
Work on `O=C(Nc1ccc2c(c1)CCC2)c1cccc(N2CCN(c3ccncc3)CC2)c1` yielded an XC50 of 971 nM.
With `CC(C)N(CC(=O)c1ccc(O)c(C(=O)O)c1)Cc1ccccc1` the XC50 was 187 nM.
`N#Cc1ccc2c(c1)CCN(CCC1CCC(NC(=O)/C=C/c3ccc(F)c4ccccc34)CC1)CC2` (stereo not drawn) showed an XC50 of 844 nM.
`CCOc1cc(C(C)C)ccc1N1CCN(CCCCNC(=O)c2ccc(NC(=O)c3ccc(Cl)cc3)cc2)CC1` was tested, and the XC50 was 416 nM.
For `COc1cc(C(=O)Nc2nc3ccccc3[nH]2)ccc1OCC(=O)Nc1cccc(C(F)(F)F)c1`, the XC50 was 738 nM.
In the case of `COc1ccc(CNC2CCN(C)CC2)cc1-c1ccc(S(=O)(=O)NCCc2ccccn2)s1`, the XC50 is reported as 624 nM.
`CCc1cn2c3c(cc(C(=O)N[C@@H](Cc4cc(F)cc(F)c4)[C@H](O)CNC4CCCCC4)cc13)N(C)S(=O)(=O)CC2` was tested, and the XC50 was 34.5 nM.
With `COc1ccccc1CNc1nc(Nc2ccccc2C)nc2ccccc12` the XC50 was 806 nM.
Compound `N#Cc1ccc(N(CCNS(=O)(=O)c2cc(Br)c(Cl)s2)Cc2ccccc2C(F)(F)F)cc1C(F)(F)F` has an XC50 of 857 nM.
Compound `COc1cccc2c(C)cc(NCc3ccc(Cl)cc3)nc12` has an XC50 of 860 nM.
`COc1ccc(C(=O)Cn2nc(-c3ccc(Cl)cc3)ccc2=O)c(OC)c1` was tested, and the XC50 was 498 nM.
`Cc1cccc(NC(=O)Nc2ccc(I)c(OCCN(C)C)c2)c1C` showed an XC50 of 725 nM.
`CNC(=S)NCc1cnc2ccccn12` was tested, and the XC50 was 195 nM.
Work on `Cc1nc2nc(N)nc(N)c2c(C)c1Cc1ccc(Cl)cc1` yielded an XC50 of 216 nM.
In the case of `CC(CN(C)C)C(=O)Nc1ccc(-c2ccc(-c3nc4ccccc4[nH]3)cc2)cc1` (stereo not drawn), the XC50 is reported as 741 nM.
Work on `O=C(NCc1ccc(Cl)c(Cl)c1)[C@H]1CNCCN1C(=O)c1ccccc1` yielded an XC50 of 955 nM.
Work on `COc1cccc(-c2ccc3c(-c4cccc(NC(C)=O)c4)cnc(N)c3c2)c1` yielded an XC50 of 106 nM.
`COc1ccccc1C1CN(Cc2coc3ccccc3c2=O)Cc2ccccc2O1` (stereo not drawn) was tested, and the XC50 was 1320 nM.
Work on `COc1ccc(N2CCN(CCCCNC(=O)c3ccc(NC(=O)c4cccc(Cl)c4)cc3)CC2)c(OC)c1` yielded an XC50 of 911 nM.
With `COc1ccc2nccc([C@@H](O)CN3CCC(NCc4ccc5nsnc5c4)CC3)c2c1` the XC50 was 958 nM.
`COc1ccc(Nc2ncc3c(-c4cccc(NC(=O)Cc5cccc(O)c5)c4)c[nH]c3n2)cc1OC` gave an XC50 of 698 nM.
For `CC(Cc1ccc(OCCCCOc2ccccc2)cc1)NCCCN1CCOCC1` (stereo not drawn), the XC50 was 725 nM.
Compound `CC(=O)Nc1ccc(NC(=O)c2cc(-c3ccc(C)cc3O)n[nH]2)cc1` has an XC50 of 490 nM.
Compound `O=c1cc(N2CCCNCC2)c(Cl)nn1Cc1ccc(NS(=O)(=O)c2ccc(Oc3ccccc3)cc2)cc1` has an XC50 of 800 nM.
Work on `Cc1cccc2nc(-c3ccc(-c4cccc(C(=O)N5CCCCC5C(C)O)c4)s3)[nH]c12` (stereo not drawn) yielded an XC50 of 636 nM.
`Cn1cncc1CNCc1ccc(-c2cccc(-c3nc4ccccc4[nH]3)c2)cc1` gave an XC50 of 234 nM.
For `COc1cc2c(Nc3cccc(NC(=O)c4ccccc4)c3)ncnc2cc1OCCCN1CCOCC1`, the XC50 was 155 nM.
For `CCC(C)NC(=O)CN1CN(c2ccccc2)C2(CCN(C(=O)c3ccc(C(C)(C)C)cc3)CC2)C1=O` (stereo not drawn), the XC50 was 125 nM.
For `COc1ccc(NC(=O)Nc2ccc(-c3ccccc3)cc2Cl)cc1N1CCN(C)CC1`, the XC50 was 875 nM.
